# Assay results: patent US20220117929A1, “METHOD FOR PREVENTING OR TREATING HIGH-GRADE SEROUS CARCINOMA” (Buddhist Tzu Chi Medical Foundation, priority 2020, published 2022)
# Read-outs that look alike come from different tables or passages of the source.
# What was measured:
# [1] = tested on: ALDH^+ kuramochi cells; test: XTT cell viability assay, ALDH+ kuramochi cells (cancer stem cells); assay type: cell-based; conditions: Homo sapiens, 48 h, BP 0-400 μg/ml
# Protocol: To evaluate and characterize the kuramochi cells, the expression of the cancer stem cell (CSC) marker, ALDH, was assessed using flow cytometry. Specifically, fluorescence-activated cell sorting (FACS) was used to isolate ALDH^+ cells from the kuramochi cell line. Then, the Aldefluor assay kit (Stem Cell Technologies, Cambridge, Mass., USA) was used to determine the ALDH activity. The activated Aldefluor reagent was used to trypsinized and incubated with cells for 50 min at 37° C. Cells were incubated with the inhibitor, N,N-diethylaminobenzaldehyde (DEAB), as control cells to identify for ALDH^+ and ALDH^− cell populations. […]
# (§1) The half-maximal inhibitory concentration (IC50) of BP is determined in ALDH^+ and ordinary kuramochi cells. IC50 is determined by assessing the cell viability under different concentration of BP. For example, cell viability was determined by XTT assay (Biological Industries Ltd., Kibbutz Beit Haemek, Israel) following the instruction provided by the manufacturer. […] After 2-5 h of incubation at 37° C., plates were analyzed by spectrophotometry to determine the optical density of the solutions at a wavelength of 450 nm (reference wavelength, 650 nm) to determine viable cell number. […] The equation is expressed as follows: Y=d+(a−d)/(1+(X/c)^B), where Y is the response, and X is the concentration. […]
# [2] = tested on: ALDH^+ kuramochi xenograft; test: TUNEL assay of xenograft tumor tissue; assay type: in vivo, mice; conditions: BP 200 mg/kg, p<0.001
# Protocol: (§2) The level of apoptosis was compared between ALDH^+ kuramochi cells with and without BP treatment using the terminal deoxynucleotidyl transferase dUTP nick end labeling (TUNEL) assay. TUNEL assay was carried out to evaluate cell apoptosis using a TUNEL Assay Kit (Roche, Ind., USA) according to the manufacturer's instructions. Specifically, ALDH^+ kuramochi cells were seeded with 1×10^5 cells in each well of 12-well culture plates. Cultured cells were allowed to attach for 24 hours, and then treated with 200 μg/ml of BP for 48 hours. Adherent tumor cells were fixed in 4% paraformaldehyde. TUNEL probes were used to detect breaks in DNA strands, followed by incubation in a permeabilization solution for 2 min on ice. Cells were washed twice in phosphate buffered saline (PBS) and the TUNEL reaction mixture was added, followed by incubation at 37° C. for 60 min in a humidified atmosphere in the dark. Samples were washed in PBS twice and observed under a fluorescence microscope.
# With BP treatment (200 mg/kg), the tumor volumes were smaller than those of control mice treated with the vehicle starting from day 11 to day 26 (p<0.001), as shown in FIG. 7A. […] TUNEL assay was also carried out to evaluate cell viability in the xenograft tumors, using the reagents and procedures as described above but with tumor tissue fixed in formalin and embedded in paraffin and sectioned with a 3 m of thickness. […]
# [3] = tested on: ALDH^+ kuramochi cells; test: Matrigel-coated Boyden chamber invasion assay; assay type: cell-based, human; conditions: 24 hours, vs untreated cells
# Protocol: For assessment of cell invasion, the invasion assays were carried out in Matrigel-coated Boyden chambers (filter pore size, 8 μM) in 24-well plates (BD). In the top wells, culture medium without serum was seeded with 5×10^4 cells. The bottom wells were added with medium containing 10% FBS and BP (0, 100, or 200 μg/ml). Treatments were added to both upper and lower chambers as indicated. After 24 hours, the free cells were removed gently with a cotton swab. The invading cells were fixed with 4% formaldehyde and Giemsa stained. The slides were air-dried and photographed, and the cells were counted.
# [4] = tested on: ALDH^+ kuramochi cells; test: Boyden chamber (transwell) cell migration assay; assay type: cell-based, human; conditions: 48 hours, vs untreated cells
# Protocol: For assessment of cell migration, kuramochi cells (5×10^4 cells) were seeded into the top well of a Boyden chamber (24-well transwell) with a pore size of 8 m (Costar, Corning Inc., Corning, N.Y., USA). The cells were allowed to migrate toward the lower well filled with the same culture medium with BP at a concentration of 100 or 200 μg/ml or without BP treatment. After 48 hours of migration, crystal violet (Sigma) was used to stain the migrated cells. The stained cells were counted using a bright-field microscope. Each experiment was repeated three times.
# [5] = tested on: ALDH^+ kuramochi cells; test: TUNEL apoptosis assay in cultured cells; assay type: cell-based, human; conditions: BP 200 μg/ml for 48 hours vs no BP, p<0.01
# Protocol: as §2
# [6] = tested on: ordinary kuramochi cells; test: XTT cell viability assay, ordinary kuramochi cells; assay type: cell-based; conditions: Homo sapiens
# Protocol: Kuramochi cells is a high-grade serous ovarian carcinoma (HGSOC) cell line purchased from Japan Cell Bank. Gene expressions of this cell line was previously confirmed to be mimicking HGSOC (Domcke, S.; Sinha, R.; Levine, D. A.; Sander, C.; Schultz, N. Nat. Commun. 2013, 4, 2126). The cell line was maintained in Dulbecco's Modified Eagle Medium (DMEM; Sigma, St. Louis, Mo., USA) supplemented with 10% fetal bovine serum (FBS), 0.1% non-essential amino acids (NEAA), 2 mM L-glutamine, and 1% penicillin-streptomycin. The cells were incubated at 37° C. with 5% CO2.
# as §1
# [7] = tested on: ALDH^+ kuramochi cells; test: Western blot of cleaved caspases in cultured cells; assay type: cell-based, human; conditions: BP 100 μg/ml or 200 μg/ml, 48 hours
# From the text: Accordingly, the effect of BP on the apoptotic signaling pathway was further investigated by quantifying the amount of activated caspase proteins by western blot analysis. […] The cell lysates were loaded onto a gradient 5-20% sodium dodecyl sulfate-polyacrylamide gradient gel. After electrophoretic separation, the proteins were transferred to a polyvinylidene difluoride membrane (Bio-Rad). The membrane was blocked at room temperature in a solution of 3% non-fat dry milk in PBS and 0.1% Tween-20 and then rinsed in PBS/0.1% Tween-20. Blots were incubated with diluted solutions of polyclonal anti-caspase 3 and 8, or anti-cleaved caspase 3, 7, 8, or 9 antibodies (1:200, St. John's Lab, London, UK) and treated with 1:5000 diluted anti-rabbit immunoglobulin G horseradish peroxidase (HRP) for staining (Amersham GE, Taipei, Taiwan). Beta-actin and tubulin proteins (Santa Cruz Biotechnology, Santa Cruz, Calif., USA) were used as internal controls. HRP signals were detected using an electrochemiluminescence kit (Promega, Fitchburg, Wis., USA).
# [8] = tested on: ALDH^+ kuramochi cells; test: XTT viability, BP combined with cisplatin or paclitaxel; assay type: cell-based, human; conditions: 72 hours
# Protocol: To determine whether BP affects the toxicity of these chemotherapeutic agents, BP was added to cisplatin and paclitaxel treatment of ovarian cancer cells in vitro. ALDH^+ kuramochi cells (2500 ALDH^+ cells/well) in a 96-well plate were treated with BP (25 μg/ml) in combination with cisplatin (0, 5, or 10 μM) or with paclitaxel (0, 10 or 50 nM). Each experiment was conducted in triplicate. Plates were incubated at 37° C. with 5% CO2 for 72 hours. Viable cells were counted by the XTT assay as describe above.
# [9] = tested on: ALDH^+ kuramochi xenograft; test: Subcutaneous xenograft tumor growth and histology in NOD-SCID mice; assay type: in vivo
# Protocol: To investigate tumor growth in vivo, the subcutaneous xenograft model is used widely in the research and allows easy detection of tumor growth and size. Herein, human ovarian cancer xenografts were used to investigate the tumor-inhibiting effect of BP in mice. The animal experiment procedures were approved by the Animal Research and Care Committee of the Buddhist Tzu Chi General Hospital (106-48). All procedures were performed in compliance with the National Institutes Health Guide for the Care and Use of Laboratory Animals. Non-obese, diabetic-severe combined immune deficiency mice (NOD-SCID) (strain NOD.CB17-Prkdcscid/JTcu) purchased from Tzu Chi University were used for these experiments.
# ALDH^+ kuramochi cells (1×10^6) were injected subcutaneously into the backs of 4 to 5-week-old female mice. After tumors had grown to a volume of 50 mm^3, mice were separated into two groups (control and treatment groups; n=6 in each group). Controls were treated with vehicle alone (10% dimethyl sulfoxide (DMSO), 20% ethanol in PBS), and the experimental group was treated with different doses of BP (100 or 200 mg/kg) for 5 days. Tumor dimensions (length and width) were measured with calipers, and the tumor volume was determined using the following formula: volume=½ (length×width^2). […] The morphology and cell density were observed and recorded.
# [10] = tested on: ALDH^+ kuramochi xenograft; test: Western blot of caspases in xenograft tumors; assay type: in vivo, mice; conditions: xenograft treated with BP vs control without BP
# Protocol: Accordingly, the effect of BP on the apoptotic signaling pathway was further investigated by quantifying the amount of activated caspase proteins by western blot analysis. Specifically, ALDH^+ kuramochi cells were treated with BP (at 100 μg/ml for 48 hours) and lysed. The cell lysates were loaded onto a gradient 5-20% sodium dodecyl sulfate-polyacrylamide gradient gel. After electrophoretic separation, the proteins were transferred to a polyvinylidene difluoride membrane (Bio-Rad). The membrane was blocked at room temperature in a solution of 3% non-fat dry milk in PBS and 0.1% Tween-20 and then rinsed in PBS/0.1% Tween-20. Blots were incubated with diluted solutions of polyclonal anti-caspase 3 and 8, or anti-cleaved caspase 3, 7, 8, or 9 antibodies (1:200, St. John's Lab, London, UK) and treated with 1:5000 diluted anti-rabbit immunoglobulin G horseradish peroxidase (HRP) for staining (Amersham GE, Taipei, Taiwan). Beta-actin and tubulin proteins (Santa Cruz Biotechnology, Santa Cruz, Calif., USA) were used as internal controls. HRP signals were detected using an electrochemiluminescence kit (Promega, Fitchburg, Wis., USA).
# With BP treatment (200 mg/kg), the tumor volumes were smaller than those of control mice treated with the vehicle starting from day 11 to day 26 (p<0.001), as shown in FIG. 7A. […] TUNEL assay was also carried out to evaluate cell viability in the xenograft tumors, using the reagents and procedures as described above but with tumor tissue fixed in formalin and embedded in paraffin and sectioned with a 3 m of thickness. Also, protein levels of cleaved caspase 3, caspase 9, and caspase 7 were examined using western blots as described above to examine apoptotic pathway activation in xenograft tumors.
compound,measurement,setting,value
"CCCC=C1OC(=O)c2ccccc21 [BP, n-butylidenephthalide]",IC50,[1],317 µg/mL
same,TUNEL^+ cells in xenograft tumors,[2],significantly more
same,invasion of ALDH^+ cells,"[3]; BP 100 μg/ml, p<0.01",significantly decreased
same,invasion of ALDH^+ cells,"[3]; BP 200 μg/ml, p<0.001",significantly decreased
same,migration of ALDH^+ cells,"[4]; BP 100 μg/ml, p<0.01",significantly decreased
same,migration of ALDH^+ cells,"[4]; BP 200 μg/ml, p<0.001",significantly decreased
same,TUNEL^+ cells,[5],Significantly more
same,IC50,"[6]; 48 h of culture, BP 0-240 μg/ml, read-out: IC50 of BP for the ordinary kuramochi cells (figure legend)",206 µg/mL
same,IC50,"[6]; 48 h of treatment, XTT, 4PL fit, read-out: IC50 of BP for ordinary kuramochi cells",206 µg/mL
same,protein level of cleaved caspase 7,[7],increased
same,protein level of cleaved caspase 8,[7],increased
same,protein level of cleaved caspase 9,[7],increased
same,protein level of cleaved caspase 3,[7]; p<0.001,increased
same,cell viability with cisplatin plus BP vs cisplatin without BP,"[8]; BP 25 μg/ml with cisplatin 0, 5 or 10 μM, 5 μM p<0.05, 0 and 10 μM p<0.01",significantly lowered
same,numbers of viable cells with paclitaxel plus BP vs paclitaxel without BP,"[8]; BP 25 μg/ml with zero or low concentration of paclitaxel (0, 10 nM), p<0.01",significantly less
same,tumor volumes vs vehicle control,"[9]; BP 200 mg/kg for 5 days, day 11 to day 26, p<0.001",smaller
same,nuclei of xenograft tumors (H & E staining) vs control,[9]; BP-treated xenograft tumors,denser
same,protein level of caspase 7 in xenograft,[10],increased
same,protein level of caspase 9 in xenograft,[10],increased
same,protein level of cleaved caspase 3 in xenograft,[10],increased
